# Data published in US20200253978A1, “HETEROCYCLICS AS INHIBITORS OF FIBROBLAST GROWTH FACTOR RECEPTOR” (ADVENT PHARMA CO. LTD., priority 2017, published 2020).
# Assays:
# [1] = biological target: T1, BaF3 cells expressing Tel-FGFR-1 and luciferase (Homo sapiens, UniProt P11362); assay: BaF3 cellular growth inhibition assay, Tel-FGFR-1 and luciferase (Bright-Glo); assay type: cell-based; details: BaF3 Tel-FGFR-1 cells, 2 days incubation, 50% growth inhibition vs DMSO
# T1 construct: Luciferase is co-expressed as a viability reporter and is not part of the key; P41212 (Transcription factor ETV6)
# Protocol: (§1) Compounds' inhibitory activities against FGFR-4 or FGFR-1 were measured in BaF3 cells expressing Tel-FGFR-4 and luciferase or Tel-FGFR-1 and luciferase, whose growth was dependent on FGFR-4 or FGFR-1 kinase but independent of IL-3. The cells were plated in 384-well plates in RPMI1640 with 10% FBS. Compounds were added as 11-point dilutions. Cell viability was determined by Bright-Glo luciferase assay (Promega) after cells were incubated with compounds for 2 days. The IC50 value was determined as the concentration for 50% growth inhibition compared to DMSO treated cells (A: IC50<0.1 μM; B: IC50 between 0.1 μM and 1 μM; C: IC50 between 1 μM and 10 μM).
# [2] = biological target: T2, BaF3 cells expressing Tel-FGFR-4 and luciferase (Homo sapiens, UniProt P22455); assay: BaF3 cellular growth inhibition assay, Tel-FGFR-4 and luciferase (Bright-Glo); assay type: cell-based; details: BaF3 Tel-FGFR-4 cells, 2 days incubation, 50% growth inhibition vs DMSO
# T2 construct: Luciferase is co-expressed as a viability reporter and is not part of the key; P41212 (Transcription factor ETV6)
# Protocol: as §1
# T2 sequence (P22455 467-755 limits assumed): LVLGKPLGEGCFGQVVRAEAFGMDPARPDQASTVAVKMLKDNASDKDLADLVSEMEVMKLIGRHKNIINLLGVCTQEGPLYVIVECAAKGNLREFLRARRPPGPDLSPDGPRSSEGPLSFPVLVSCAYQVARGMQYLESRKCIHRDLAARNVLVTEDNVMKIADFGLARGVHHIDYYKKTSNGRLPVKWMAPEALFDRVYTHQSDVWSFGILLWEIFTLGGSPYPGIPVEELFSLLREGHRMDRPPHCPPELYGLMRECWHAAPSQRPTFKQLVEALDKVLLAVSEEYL
# T1 sequence (P11362 478-767 limits assumed): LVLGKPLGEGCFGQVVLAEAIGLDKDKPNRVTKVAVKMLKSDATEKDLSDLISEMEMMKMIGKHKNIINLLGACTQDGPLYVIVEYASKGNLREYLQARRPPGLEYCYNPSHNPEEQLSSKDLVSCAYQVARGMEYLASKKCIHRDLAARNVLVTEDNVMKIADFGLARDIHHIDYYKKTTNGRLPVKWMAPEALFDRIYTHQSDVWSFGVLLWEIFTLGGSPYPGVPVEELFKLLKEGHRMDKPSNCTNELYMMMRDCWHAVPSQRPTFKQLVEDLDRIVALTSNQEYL
IC50 ([1]; numeric bounds) [µM],IC50 [2] [µM],IC50 ([1]; class symbols) [µM],SMILES
> 10,< 0.1,,"C=CC(=O)Nc1cc(N2CCN(CC)CC2)ccc1Nc1cc2cc(C(O)c3c(F)c(OC)cc(OC)c3F)oc2cn1 (racemic) [Example 5, (±)-N-(2-((2-((2,6-difluoro-3,5-dimethoxyphenyl)(hydroxy)methyl)furo[2,3-c]pyridin-5-yl)amino)-5-(4-ethylpiperazin-1-yl)phenyl)acrylamide]"
> 10,0.1 to 1,,"C=CC(=O)Nc1cc(N2CCN(CC)CC2)ccc1Nc1cc2cc(C(C)(O)c3c(F)c(OC)cc(OC)c3F)oc2cn1 (racemic) [Example 7, (±)-N-(2-((2-(1-(2,6-difluoro-3,5-dimethoxyphenyl)-1-hydroxyethyl)furo[2,3-c]pyridin-5-yl)amino)-5-(4-ethylpiperazin-1-yl)phenyl)acrylamide]"
> 3.3,0.1 to 1,,"C=CC(=O)Nc1cn(C)nc1Nc1cc2cc(C(O)c3c(F)c(OC)cc(OC)c3F)oc2cn1 (racemic) [Example 10, (±)-N-(3-((2-((2,6-difluoro-3,5-dimethoxyphenyl)(hydroxy)methyl)furo[2,3-c]pyridin-5-yl)amino)-1-methyl-1H-pyrazol-4-yl)acrylamide]"
> 10,0.1 to 1,,"C=CC(=O)N[C@H]1CCOC[C@H]1Nc1cc2cc(C(O)c3c(F)c(OC)cc(OC)c3F)oc2cn1 (mixture of isomers) [Example 14, (±)N-((3S,4S)-3-((2-((2,6-difluoro-3,5-dimethoxyphenyl)(hydroxy)methyl)furo[2,3-c]pyridin-5-yl)amino)tetrahydro-2H-pyran-4-yl)acrylamide]"
> 10,< 0.1,,"C=CC(=O)Nc1cccc(C)c1Nc1cc2cc(C(O)c3c(F)c(OC)cc(OC)c3F)sc2cn1 (racemic) [Example 28, (±)-N-(2-((2-((2,6-difluoro-3,5-dimethoxyphenyl)(hydroxy)methyl)thieno[2,3-c]pyridin-5-yl)amino)-3-methylphenyl)acrylamide]"
> 10,< 0.1,,"C=CC(=O)Nc1cccc(Cl)c1Nc1cc2cc(C(O)c3c(F)c(OC)cc(OC)c3F)oc2cn1 (racemic) [Example 29, (±)-N-(3-chloro-2-((2-((2,6-difluoro-3,5-dimethoxyphenyl)(hydroxy)methyl)furo[2,3-c]pyridin-5-yl)amino)phenyl)acrylamide]"
> 10,0.1 to 1,,"C=CC(=O)Nc1cccc(C(F)(F)F)c1Nc1cc2cc(C(O)c3c(F)c(OC)cc(OC)c3F)oc2cn1 (racemic) [Example 30, (±)-N-(2-((2-((2,6-difluoro-3,5-dimethoxyphenyl)(hydroxy)methyl)furo[2,3-c]pyridin-5-yl)amino)-3-(trifluoromethyl)phenyl)acrylamide]"
,< 0.1,1 to 10,"C=CC(=O)Nc1cc(N2CCN(CC)CC2)ccc1Nc1ncc2oc(C(O)c3c(F)c(OC)cc(OC)c3F)cc2n1 (racemic) [Example 31, (±)-N-(2-((6-((2,6-difluoro-3 ,5-dimethoxyphenyl)(hydroxy)methyl)furo[3,2-d]pyrimidin-2-yl)amino)-5-(4-ethylpiperazin-1-yl)phenyl)acrylamide]"
> 10,< 0.1,,"C=CC(=O)Nc1cc(N2CCN(CC)CC2)ccc1Nc1cc2cc(C(O)c3c(F)c(OC)cc(OC)c3F)oc2cn1 (single isomer, unassigned) [Example 13A, N-(2-((2-((2,6-difluoro-3,5-dimethoxyphenyl)(hydroxy)methyl)furo[2,3-c]pyridin-5-yl)amino)-5-(4-ethylpiperazin-1-yl)phenyl)acrylamide]"
> 10,,,"C=CC(=O)Nc1cc(N2CCN(CC)CC2)ccc1Nc1cc2cc(C(O)c3c(F)c(OC)cc(OC)c3F)oc2cn1 (single isomer, unassigned) [Example 13B, N-(2-((2-((2,6-difluoro-3,5-dimethoxyphenyl)(hydroxy)methyl)furo[2,3-c]pyridin-5-yl)amino)-5-(4-ethylpiperazin-1-yl)phenyl)acrylamide]"
